How the values were obtained:
[1] = test system: TeloDNA (5'-fluorescein) (DNA, G4) TTAGGGTTAGGGTTAGGGTTAGGG; test: fluorescence polarization; settings: 150 mM KCl, NaCl or LiCl (salt not specified); 20 mM HEPES; 20 mM HEPES pH 7.5, room temperature, tRNA competitor added, 10 nM probe; apparent
TeloDNA and TRF2 complex = test: FP inhibition assay, TRF2 GAR binding to TeloDNA; settings: 10 nM peptide, 5 μM oligo
Method: (§1) All the nucleic acids, peptides and chemicals were dissolved in buffer containing 20 mM HEPES pH7.5, 150 mM salt (KCl, NaCl, LiCl) at the stock concentration of 1 mM. For peptide and nucleic acid interactions, 25μL of each nucleic acids with a sequential twofold dilutions starting from 50 μM was added into each well of 96-well plate followed by adding 25μL of 10 nM FITC labeled TRF2 peptide. For compounds and nucleic acid interactions, 20μL of each compounds with a sequential twofold dilutions starting from 50 μM were added into each well of 96-well plate followed by adding 5μL of 20 ng/mL tRNA and 25μL of 10 nM FAM labeled nucleic acids. For inhibition assay, 5μL FITC labeled TRF2 GAR peptide (10 nM final concentration) and 10 μL oligos (5 μM final concentration) were mixed, followed by adding 5μL of each compound with a sequential twofold dilutions starting from 50 μM into each well of 384-well plate. All components were mixed thoroughly, and the plate was incubated at room temperature for 1 h before placing in an Envision Plate Reader for reading at 495/520 nm. All data curves were fitted using Prism 8.0.

G4 TeloDNA = test: FP assay, compound binding to 5′ fluorescein-labeled TeloDNA; settings: 10 nM fluorescein-labeled probe, 3 independent experiments
Method: as §1

[2] = test system: TERRA (5'-fluorescein) (RNA, G4) UUAGGGUUAGGGUUAGGGUUAGGG; test: fluorescence polarization; settings: 150 mM KCl, NaCl or LiCl (salt not specified); 20 mM HEPES; 20 mM HEPES pH 7.5, room temperature, tRNA competitor added, 10 nM probe; apparent
TERRA in U2OS cells = test: TERRA levels by RNA dot blot in U2OS cells; type: cell-based; settings: ALT positive U2OS cells, 2 μM, 2 days
Method: LOX human melanoma cells[74],[101] were grown in complete RPMI (high glucose RPMI supplemented with 10% heat inactivated FBS, 100 I.U./mL Penicillin, and 100 μg/mL Streptomycin (Corning)). LOX cells inducibly expressing TRF2∆B protein were generated by lentiviral transduction. Cells were infected with lentiviral particles containing pInducer10L and pIND-MYC-TRF2∆B, and single cell clonal colonies were selected in 1 µg/mL puromycin. N-terminally Myc-tagged TRF2∆B protein was expressed in stable lines by induction with 1 µg/ml doxycycline at indicated days. Due to the instability of doxycycline in the culture, the culture medium will be replaced with fresh doxycycline every 2 days. […]
Homogenous Time Resolved Fluorescence (HTRF) assay
All material including peptide, nucleic acids and compounds were dissolved in buffer containing 20mM HEPES pH7.5 150mM KCl. […] The plate was incubated at room temperature for 30 minutes, following by adding 5µL of streptavidin-Tb-cryptate (Cisbio, PerkinElmer) and the plate was then incubated at room temperature for another 30 minutes before measured by EnVision plate reader (330/520 nm). […] The curves were analyzed using Prism 8.0. […]
Total RNA was isolated as previously described by using TRIzol reagent (Invitrogen) 1. […] RNA concentration was determined by Nanodrop-2000 (ThermoFisher). […]

[3] = test system: TeloDNA (unlabelled) (DNA, G4) TTAGGGTTAGGGTTAGGGTTAGGG; test: fluorescence polarization, displacement of TRF2 GAR peptide; settings: 150 mM KCl, NaCl or LiCl (salt not specified); 20 mM HEPES; 20 mM HEPES pH 7.5, room temperature; FITC-TRF2 GAR peptide 10 nM displaced; 5 μM oligo
EBNA1 G4 RNA = test: FP assay, compound binding to EBNA1 G4 RNA
Method: as §1

Structure (SMILES) | EC50 [1] [nM] | IC50 (TeloDNA and TRF2 complex) [nM] | EC50 (G4 TeloDNA) [nM] | EC50 [2] [nM] | TERRA levels in U2OS cells (TERRA in U2OS cells) | IC50 [3] [nM] | binding to EBNA1 G4 RNA (EBNA1 G4 RNA) | EC50 (EBNA1 G4 RNA) [nM]
CCc1c(C)c2cc3nc(cc4nc(cc5c(CC)c(C)c(cc1[nH]2)n5C)C(C)=C4CCC(=O)O)C(CCC(=O)O)=C3C [NMM, N-methyl mesoporphyrin IX] | 4800 | 1000 | 4800 | 680 | reduced TERRA levels | 1000 | did not display any binding | –
CN(C)c1ccc(Nc2c3ccc(NC(=O)CCN4CCCC4)cc3nc3cc(NC(=O)CCN4CCCC4)ccc23)cc1 [BRACO-19] | 3900 | 40 | 3900 | 7400 | reduced TERRA levels | 40 | high binding affinity | 227

Source: publication PMC7876106 (Scientific Reports, 2021)
